row,SMILES,melting point [°C]
1,Cn1c(-c2ccccc2)cc(O)c(C(=O)c2ccccc2)c1=O,149 to 151
2,CC(C)(C)OC(=O)NC1CCc2cc3ccccc3n2C1 (stereo unspecified),137 to 139
3,C[C@@H]1N=C(c2ccccc2Cl)c2cc([N+](=O)[O-])ccc2NC1=O,200 to 202
4,CCn1nc(C#N)cc1-c1cn(C(C)C)c2cc(NS(C)(=O)=O)ccc12,144 to 145
5,CC(=O)N1CCN(c2ccc(Nc3nccc(-c4sc(-c5ccc(N6CCOCC6)cc5)nc4C)n3)cc2)CC1,250 to 252
6,Cn1c(=O)c2c(O)nccc2n(C)c1=O,> 300
7,Cc1nn(CCO)c(C)c1Sc1ccc(Cl)cc1,88.9 to 90.3
8,COC(=O)NC(=O)Nc1nc2c(C)cccc2s1,272 to 280
9,COCCOc1cc(OCCOC)c2c(=O)[nH]c(-c3cc(C)nc(C)c3)nc2c1,150 to 151
10,O=C(O)CCNc1ccc(CNC(=O)C2Cc3ccccc3N2S(=O)(=O)c2ccc(-c3cccc(C(F)(F)F)c3)cc2)cc1 (stereo unspecified),82
11,COc1ccc(N(C)c2nccc(-c3ccncc3)n2)cc1,124 to 126
12,Oc1c(-c2ccccc2)sc2c(C(O)c3ccccc3)nccc12 (stereo unspecified),214 to 215
13,O=C(CC(F)(F)F)CS(=O)(=O)C(c1ccc(Cl)cc1)c1ccc(Cl)cc1,48 to 50
14,O=C(O)CN1C(=O)C=CC1=O,110
15,C=CCOc1ccc2c(C)cc(=O)oc2c1C(=O)C=Cc1cccnc1,124 to 126
16,CCC1(CC)C(=O)N(C(C)(C)C)CC(C)(C)N1OC(C)c1ccc(CCl)cc1 (stereo unspecified),66 to 68
17,CN(C)C(=O)Sc1nc(-c2ccccc2)cn1-c1ccc([N+](=O)[O-])cn1,200 to 201
18,CCOC(Nc1ccccc1)(OCC)c1cc(C(=O)c2ccc(Cl)cc2)nc(C)c1Cl,156 to 157
19,CC(C)(C)OC(=O)N1CCc2snc(O)c2C1,174 to 177
20,COc1ccc(C2CCN(c3c(C)c(C)c4c(c3C)C(O)(c3ccccc3)C(C)(C)O4)CC2)cc1OC (stereo unspecified),143 to 145
21,O=C(Nc1cc(C(F)(F)F)nc(C(F)(F)F)c1)C(=O)Nc1cc(C(F)(F)F)nc(C(F)(F)F)c1,271 to 272
22,Cc1ccc2c(c1)CNC(=O)CC2,174 to 175
23,CC(=O)N(C)C1=C(C#N)CC(N)(C(=O)CCCl)C=C1 (stereo unspecified),174 to 175
24,CC(C)CCOc1c(-c2ccc(S(C)(=O)=O)cc2)cnn(-c2ccc(F)c(F)c2)c1=O,121 to 123
25,COC(=O)C1=C(C)NC(CO)=C(C(=O)OC)C1c1ccccc1C#N (stereo unspecified),177 to 178
26,Brc1cc(Br)c(OC2C=CCC2)c(I)c1 (stereo unspecified),57 to 58

# Other lines, results leading:
row,melting point [°C],SMILES
1,161,CCn1c(C(F)(F)F)nn(-c2cc(N)c(C(N)=S)cc2F)c1=O
2,153 to 154,Cn1c(CNCC2CCOCC2)cc2cc(NC(=O)c3ccc(OCC4CCOC4)cc3)ccc21 (stereo unspecified)
3,195 to 198,N#CSc1c(-c2ncon2)nn(-c2c(Cl)cc(C(F)(F)F)cc2Cl)c1N
4,234 to 235,NC(=O)c1cc2ccccc2cc1N
5,117 to 119,N#CC(=NO)C(=O)c1ccccc1
6,212 to 217,CC(=O)N1CCC(NC(=O)Nc2cccc(C(F)(F)F)c2)CC1
7,222,Cc1c(CCC(=O)O)n(Cc2ccc(-n3ccnc3)cc2)c2ccc(F)cc12
8,212 to 214,O=C(O)c1cccc2cc(-c3ccccc3)oc12
9,118 to 119,O=C(c1ccc(CBr)cc1)c1ccc(CBr)cc1
10,196 to 198,CC(=O)NCCc1c(C(F)(F)F)nn2ccc3c(c12)CCO3
11,> 300,O=C(Nc1cc(C(=O)O)cc(C(=O)O)c1)Oc1ccccc1
12,169 to 171,CC(C)(N)CNc1ccnc2cc(Cl)ccc12
13,194 to 195,Oc1nsnc1-c1c(Cl)cccc1Cl
14,118 to 120,COc1ccc(COC(=O)C(N)CCCCNC(=O)OC(C)(C)C)cc1 (stereo unspecified)
15,257,c1ccc2c(Sc3c4ccccc4cc4ccccc34)c3ccccc3cc2c1

# Reference: a melting point compilation (Tetko et al.; mined from patent text by program, amines drawn as free bases though some values may be those of a salt)
